US20240366637A1, “Compounds inhibiting the synergistic carsinogenic effect of heavy metals in the presence of other carcinogens for use in the treatment of cancer” (priority 2021, published 2024)

How the values were obtained:
[1] = system: Salmonella typhimurium TA1535; details: cadmium chloride 0.5 mM as pro-mutagen, N-Methyl-N-nitrosourea 180 μM as mutagen, candidate in various concentrations; mutant revertants on solid media
Protocol: The operating hypothesis was tested with an AMES test (as described e.g. by Mandel and Ryser, 1984) based platform using Salmonella typhimurium TA1535 (Standard Ames Tester Strain), cadmium chloride as pro-mutagen (0.5 mM final concentration during treatment), N-Methyl-N-nitrosourea as mutagen (180 μM final concentration during treatment) and EDTA, phytic acid (IP6) and Unithiol (i.e. DMPS) as candidate cadmium-promoted mutagenicity antidotes (in various concentrations, see FIGS. 1 and 2).
The experiment included the following steps: • 1. Healthy growth of bacterial cells • 2. Absorption of cadmium chloride (as a non-genotoxic metabolic poison) under conditions of reduced metabolism (bacteria chilled on ice) • 3. Addition of candidate antidotes and metabolic activation (fresh growth medium, 37° C.) • 4. Addition of N-methyl-N-nitrosourea under metabolically active conditions to fix mutations (fresh growth medium, 37° C.) • 5. Screening for mutant revertants on solid media (standard, second generation Petri dish-based AMES test)

Salmonella typhimurium = details: synergistic with two nitrosoamines; cited from earlier work

SMILES | inhibition of mutagenicity-promoting synergy between cadmium and N-methyl-N-nitrosourea [1] | increase of the mutagenicity of two common nitrosoamines, greater than expected from simple additivity (Salmonella typhimurium)
O=C(O)CN(CCN(CC(=O)O)CC(=O)O)CC(=O)O [EDTA] | did not inhibit | –
O=S(=O)(O)CC(S)CS (stereo not shown) [Unithiol, 2,3-Dimercapto-1-propanesulfonic acid] | dose-dependent inhibition | –
[Cl][Cd][Cl] [cadmium chloride] | – | up to 30 fold
O=P(O)(O)O[C@H]1[C@H](OP(=O)(O)O)[C@@H](OP(=O)(O)O)[C@H](OP(=O)(O)O)[C@@H](OP(=O)(O)O)[C@H]1OP(=O)(O)O [phytic acid] | dose-dependent inhibition | –
